According to US9161988B2, “Multimeric peptide conjugates and uses thereof” (Angiochem Inc., priority 2009, dated 2015):

Experiments:
[1] = relative to Angiopep-1 (250 nM); threshold defining 'efficiently transported across the BBB'; cited from earlier work
[2] = in situ brain perfusion assay, Angiopep-1 dimer vs Angiopep-2; format: in vivo
Description: Volume of brain parenchymal distribution was measured using the in situ brain perfusion assay (FIG. 6). […] Parenchymal uptake of the Angiopep-1 dimer and Angiopep-2 was also measured at various concentrations in situ (FIG. 7).

Volume of brain parenchymal distribution ([2]; as compared to monomeric Angiopep-2, especially at lower concentrations, FIG. 6) | Compound | transport across the BBB relative to Angiopep-1 [1] | Parenchymal uptake ([2]; various concentrations in situ, especially at lower concentrations (<500 nmol), compared to Angiopep-2 monomer, FIG. 7)
 | Angiopep-6: peptide vector, SEQ ID NO:111, T F F Y G G S R G K R N N F R T E E Y (TFFYGGSRGKRNNFRTEEY) | 38.5% | 
Great uptake volumes | C[C@@H](O)[C@H](N)C(=O)N[C@@H](Cc1ccccc1)C(=O)N[C@@H](Cc1ccccc1)C(=O)N[C@@H](Cc1ccc(O)cc1)C(=O)NCC(=O)NCC(=O)N[C@@H](CSSC[C@H](NC(=O)CNC(=O)CNC(=O)[C@H](Cc1ccc(O)cc1)NC(=O)[C@H](Cc1ccccc1)NC(=O)[C@H](Cc1ccccc1)NC(=O)[C@@H](N)[C@@H](C)O)C(=O)N[C@@H](CCCNC(=N)N)C(=O)NCC(=O)N[C@@H](CCCCN)C(=O)N[C@@H](CCCNC(=N)N)C(=O)N[C@@H](CC(N)=O)C(=O)N[C@@H](CC(N)=O)C(=O)N[C@@H](Cc1ccccc1)C(=O)N[C@@H](CCCCN)C(=O)N[C@H](C(=O)N[C@@H](CCC(=O)O)C(=O)N[C@@H](CCC(=O)O)C(=O)N[C@@H](Cc1ccc(O)cc1)C(N)=O)[C@@H](C)O)C(=O)N[C@@H](CCCNC(=N)N)C(=O)NCC(=O)N[C@@H](CCCCN)C(=O)N[C@@H](CCCNC(=N)N)C(=O)N[C@@H](CC(N)=O)C(=O)N[C@@H](CC(N)=O)C(=O)N[C@@H](Cc1ccccc1)C(=O)N[C@@H](CCCCN)C(=O)N[C@H](C(=O)N[C@@H](CCC(=O)O)C(=O)N[C@@H](CCC(=O)O)C(=O)N[C@@H](Cc1ccc(O)cc1)C(N)=O)[C@@H](C)O [Angiopep-1 dimer] |  | higher transport than the Angiopep-2 monomer
